Results as given in PubChem BioAssay (NCI).
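Values below derive from 48-hour exposures of cells grown in 96-well plates, with endpoints linearly interpolated between the two concentrations bracketing the appropriate inhibition level. TGI denotes the concentration required for complete inhibition of growth.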

Legend:
Assay in all cases: NCI tumour cell line growth inhibition, 48 h
HOP-92 NSCLC = test system: HOP-92 NSCLC
UACC-62 melanoma = test system: UACC-62 melanoma
CAKI-1 renal = test system: CAKI-1 renal
SR leukemia = test system: SR leukemia
SK-MEL-2 melanoma = test system: SK-MEL-2 melanoma
OVCAR-5 ovarian = test system: OVCAR-5 ovarian
ACHN renal = test system: ACHN renal
TK-10 renal = test system: TK-10 renal
HOP-62 NSCLC = test system: HOP-62 NSCLC
A498 renal = test system: A498 renal
UO-31 renal = test system: UO-31 renal
RXF 393 renal = test system: RXF 393 renal
KM20L2 colon = test system: KM20L2 colon
HL-60(TB) leukemia = test system: HL-60(TB) leukemia
RPMI-8226 leukemia = test system: RPMI-8226 leukemia
SK-OV-3 ovarian = test system: SK-OV-3 ovarian
SF-268 CNS = test system: SF-268 CNS
IGROV1 ovarian = test system: IGROV1 ovarian
RXF-631 renal = test system: RXF-631 renal
MOLT-4 leukemia = test system: MOLT-4 leukemia
SK-MEL-28 melanoma = test system: SK-MEL-28 melanoma
OVCAR-8 ovarian = test system: OVCAR-8 ovarian
SNB-75 CNS = test system: SNB-75 CNS
NCI-H23 lung = test system: NCI-H23 lung
HCC-2998 colon = test system: HCC-2998 colon
SN12C renal = test system: SN12C renal
SNB-78 CNS = test system: SNB-78 CNS
KM12 colon = test system: KM12 colon
NCI-H460 lung = test system: NCI-H460 lung
SW-620 colon = test system: SW-620 colon
A549 NSCLC = test system: A549 NSCLC
NCI-H226 lung = test system: NCI-H226 lung
SNB-19 CNS = test system: SNB-19 CNS
U251 CNS = test system: U251 CNS
MALME-3M melanoma = test system: MALME-3M melanoma
SK-MEL-5 melanoma = test system: SK-MEL-5 melanoma
EKVX NSCLC = test system: EKVX NSCLC
M19-MEL melanoma = test system: M19-MEL melanoma
K-562 leukemia = test system: K-562 leukemia
COLO 205 colon = test system: COLO 205 colon
DMS 273 small cell lung = test system: DMS 273 small cell lung
DLD-1 colon = test system: DLD-1 colon
OVCAR-4 ovarian = test system: OVCAR-4 ovarian
NCI-H522 lung = test system: NCI-H522 lung
786-0 renal = test system: 786-0 renal
HCT-15 colon = test system: HCT-15 colon
HCT-116 colon = test system: HCT-116 colon
SF-295 CNS = test system: SF-295 CNS
UACC-257 melanoma = test system: UACC-257 melanoma
HOP-18 NSCLC = test system: HOP-18 NSCLC
LOX IMVI melanoma = test system: LOX IMVI melanoma
M14 melanoma = test system: M14 melanoma
SF-539 CNS = test system: SF-539 CNS
HT29 colon = test system: HT29 colon
DMS 114 small cell lung = test system: DMS 114 small cell lung
OVCAR-3 ovarian = test system: OVCAR-3 ovarian

## CCCCCCC(=O)OC[n+]1ccc2c(C)c3[nH]c4ccccc4c3c(C)c2c1
HOP-92 NSCLC
  TGI: 23.9 µM
UACC-62 melanoma
  TGI: 16.4 µM
CAKI-1 renal
  TGI: 6.55 µM
SR leukemia
  TGI: 8.77 µM
SK-MEL-2 melanoma
  TGI: 37.8 µM
OVCAR-5 ovarian
  TGI: 3.6 µM
ACHN renal
  TGI: 12.4 µM
TK-10 renal
  TGI: 14.3 µM
HOP-62 NSCLC
  TGI: 24.7 µM
A498 renal
  TGI: 2.19 µM
UO-31 renal
  TGI: 26 µM
RXF 393 renal
  TGI: 2.26 µM
KM20L2 colon
  TGI: 2.96 µM
HL-60(TB) leukemia
  TGI: > 100 µM
RPMI-8226 leukemia
  TGI: 1.69 µM
SK-OV-3 ovarian
  TGI: 6.31 µM
SF-268 CNS
  TGI: 2.52 µM
IGROV1 ovarian
  TGI: 30.8 µM
RXF-631 renal
  TGI: > 100 µM
MOLT-4 leukemia
  TGI: 12.7 µM
SK-MEL-28 melanoma
  TGI: 3.1 µM

## Cc1cc(NS(=O)(=O)c2ccc(N=Nc3cc(N=Nc4ccc(S(=O)(=O)Nc5cc(C)nc(C)n5)cc4)c4c(NC(=O)C(Cl)Cl)cccc4c3OC(=O)C(Cl)Cl)cc2)nc(C)n1 (tested in a mixture with another compound)
HOP-92 NSCLC
  TGI: 59.2 µM
OVCAR-8 ovarian
  TGI: > 100 µM
SNB-75 CNS
  TGI: 76.9 µM
NCI-H23 lung
  TGI: 78.3 µM
HCC-2998 colon
  TGI: 35.8 µM
SN12C renal
  TGI: 37.8 µM
SNB-78 CNS
  TGI: > 100 µM
KM12 colon
  TGI: 31.6 µM
NCI-H460 lung
  TGI: > 100 µM
SW-620 colon
  TGI: 40.4 µM
A549 NSCLC
  TGI: > 100 µM
NCI-H226 lung
  TGI: 44.9 µM
UACC-62 melanoma
  TGI: 51.4 µM
CAKI-1 renal
  TGI: 78.6 µM
SR leukemia
  TGI: 94.8 µM
SK-MEL-2 melanoma
  TGI: 81.1 µM
SNB-19 CNS
  TGI: 33.6 µM
U251 CNS
  TGI: 32.8 µM
OVCAR-5 ovarian
  TGI: 30.6 µM
ACHN renal
  TGI: 56.7 µM
MALME-3M melanoma
  TGI: 40.8 µM
SK-MEL-5 melanoma
  TGI: 10.5 µM
TK-10 renal
  TGI: 88.1 µM
EKVX NSCLC
  TGI: 53.5 µM
M19-MEL melanoma
  TGI: > 100 µM
HOP-62 NSCLC
  TGI: 78.8 µM
K-562 leukemia
  TGI: > 100 µM
COLO 205 colon
  TGI: 74.9 µM
A498 renal
  TGI: 71.1 µM
UO-31 renal
  TGI: 37.4 µM
DMS 273 small cell lung
  TGI: 83.9 µM
DLD-1 colon
  TGI: 33.4 µM
RXF 393 renal
  TGI: 38.7 µM
OVCAR-4 ovarian
  TGI: 43.7 µM
KM20L2 colon
  TGI: 60.8 µM
NCI-H522 lung
  TGI: 38.5 µM
786-0 renal
  TGI: 35.9 µM
HL-60(TB) leukemia
  TGI: 52.4 µM
HCT-15 colon
  TGI: 31.7 µM
HCT-116 colon
  TGI: > 100 µM
SF-295 CNS
  TGI: 77.6 µM
UACC-257 melanoma
  TGI: 70.2 µM
SK-OV-3 ovarian
  TGI: > 100 µM
SF-268 CNS
  TGI: 98.3 µM
HOP-18 NSCLC
  TGI: 34.1 µM
LOX IMVI melanoma
  TGI: 34.3 µM
M14 melanoma
  TGI: 70.2 µM
SF-539 CNS
  TGI: 42.8 µM
IGROV1 ovarian
  TGI: 53.2 µM
HT29 colon
  TGI: 46 µM
DMS 114 small cell lung
  TGI: > 100 µM
OVCAR-3 ovarian
  TGI: 33 µM
MOLT-4 leukemia
  TGI: > 100 µM
SK-MEL-28 melanoma
  TGI: 52.2 µM
